PAE and MIC data for one molecule are collected here from ChEMBL document CHEMBL1629634, “Postantibiotic effect of tigecycline against 14 gram-positive organisms” (Antimicrob Agents Chemother, 2009).

What all share (type): functional
Assay [1] deals with Haemophilus influenzae. Put plainly: Antibacterial activity against amoxicillin, clavulanate-resistant Haemophilus influenzae expressing beta-lactamase assessed as sub-MIC effect at 0.4 times MIC concentration incubated for 1 hr by viable plate count method.
Assay [2] concerns Staphylococcus aureus. Put plainly: Antibacterial activity against vancomycin-sensitive methicillin-resistant Staphylococcus aureus assessed as sub-MIC effect at 0.2 times MIC concentration incubated for 1 hr by viable plate count method.
Another assay relates to Klebsiella pneumoniae. The experiment in a line: Antibacterial activity against Klebsiella pneumoniae assessed as post antibiotic effect at 10 times MIC concentration incubated for 1 hr measured after 1:1000 dilution by viable plate count method.
Assay [3] has as its system Streptococcus pneumoniae. The experiment in a line: Antibacterial activity against penicillin-resistant Streptococcus pneumoniae assessed as sub-MIC effect at 0.3 times MIC concentration incubated for 1 hr by viable plate count method.
The next assay relates to Enterobacter cloacae. Put plainly: Antibacterial activity against Enterobacter cloacae assessed as post-antibiotic sub-MIC effect at 0.4 times MIC concentration pretreated with 2 times MIC concentration for 1 hr followed by 1:1000 dilution by viable plate count method.
The subject of assay [4] is Haemophilus influenzae. The experiment in a line: Antibacterial activity against amoxicillin, clavulanate-resistant Haemophilus influenzae expressing beta-lactamase assessed as post-antibiotic sub-MIC effect at 0.2 times MIC concentration pretreated with 6 times MIC concentration for 1 hr followed by 1:1000 dilution by viable plate count method.
In assay [5] the test system is Staphylococcus aureus. Put plainly: Antibacterial activity against vancomycin-intermediate methicillin-resistant Staphylococcus aureus assessed as post-antibiotic sub-MIC effect at 0.3 times MIC concentration pretreated with 10 times MIC concentration for 1 hr followed by 1:1000 dilution by viable plate count method.
For a further assay, the system named is Acinetobacter baumannii. Put plainly: Antibacterial activity against multidrug-resistant Acinetobacter baumannii producing OXA-24 and OXA-51 beta-lactamases assessed as post-antibiotic sub-MIC effect at 0.4 times MIC concentration pretreated with 2 times MIC concentration for 1 hr followed by 1:1000 dilution by viable plate count method.
In assay [6] the test system is Escherichia coli. The experiment in a line: Antibacterial activity against Escherichia coli assessed as sub-MIC effect at 0.4 times MIC concentration incubated for 1 hr by viable plate count method.
The subject of assay [7] is Escherichia coli. The experiment in a line: Antibacterial activity against Escherichia coli assessed as sub-MIC effect at 0.2 times MIC concentration incubated for 1 hr by viable plate count method.
Assay [8] deals with Streptococcus pneumoniae. Put plainly: Antibacterial activity against penicillin-intermediate Streptococcus pneumoniae assessed as sub-MIC effect at 0.4 times MIC concentration incubated for 1 hr by viable plate count method.
Assay [9] relates to Streptococcus pneumoniae. The experiment in a line: Antibacterial activity against penicillin-resistant Streptococcus pneumoniae by macrodilution method.

≈ marks a conversion by molar mass, not a printed value.

A word on the MIC: it is the least concentration at which growth counts as inhibited. A low value points to a more susceptible organism. For `CN(C)c1cc(NC(=O)CNC(C)(C)C)c(O)c2c1C[C@H]1C[C@H]3[C@H](N(C)C)C(O)=C(C(N)=O)C(=O)[C@@]3(O)C(O)=C1C2=O` [TIGECYCLINE], the PAE is 1.9 h with Haemophilus influenzae [1]; 0.2 h in the assay with Staphylococcus aureus [2]; 1.7 h in the assay on Klebsiella pneumoniae; 0.5 h in the assay on Streptococcus pneumoniae [3]; 6.9 h with Enterobacter cloacae; 3.9 h with Haemophilus influenzae [4]. In addition, the PAE came out at 9.9 h with Staphylococcus aureus [5]; 3 h in the assay with Acinetobacter baumannii; 0.1 h with Escherichia coli [6]; 0 h with Escherichia coli [7]; 7.7 h in the assay on Streptococcus pneumoniae [8]. The same molecule yielded a minimum inhibitory concentration (MIC) against Streptococcus pneumoniae [9] of 0.03 µg/mL (≈ 0.0512 µM).
